Experimental data from patent US12276039B2, “Crystal of europium compound and method for producing crystal of europium compound” (OHARA INC., priority 2020, dated 2025).

Test system: Hela cancer cells
Test: Toxicity evaluation: cell density of Hela cancer cells cultured with FA (folic acid)-modified particles
Format: cell-based
Details: FA-modified particles on Hela cells, FIG. 9
Procedure: Particles of Examples 1 to 3 or Comparative Examples 1 to 2 were subjected to toxicity evaluation by cancer cell imaging and fluorescence intensity measurement by the following methods.
To 250 mg of the particles of Examples 1 to 3 or Comparative Examples 1 to 2, 12 ml of an HCl aqueous solution (pH=2) was added, and ultrasonic treatment was carried out. Next, a solution containing 0.78 ml (3.3 mmol) of 3-aminopropyltriethoxysilane (APTES) in 5 mL of ethanol was prepared and added to the ultrasonic-treated solution to obtain a mixed solution. The mixed solution was stirred for 20 hours at 40° C. (pH<6.5). […]
After the above cells were cultured, a polystyrene dish (TCPS) including cells was washed twice with 1 ml of phosphate buffered saline (PBS), then FA (folic acid)-modified particles which had not taken up by the cells were removed, 0.1 ml of 0.05% Trypsin-EDTA was placed in a TCPS including cells, followed by allowing to stand still in a CO2 incubator for 12 minutes, and cells were peeled off from TCPS. […] Thereafter, the supernatant was discarded, 20 ml of medium was added to the tube, pipetting was carried out about 20 times, 1 ml was aliquoted into 15 ml-tubes, the cell suspension was placed into a disposable hemocytometer using a micropipette outside a clean bench, the cell number was confirmed under a microscope, and the average value (cell/cm^2) was calculated. […]

O.O.O.O.O.O.[Cl][Eu]([Cl])[Cl] [Comparative Example 2, Europium chloride hexahydrate]
cell proliferation behavior (average cell density) (3, 12, 24, 36 and 48 hours after spraying): a normal cell proliferation behavior was not observed | cytotoxicity: cytotoxicity due to the elution
